Laboratory results reported in patent US5654179A, “Nucleic acid preparation methods” (HRI Research, Inc., priority 1994, dated 1997).
Read-outs that look alike come from different tables or passages of the source.

How the values were obtained:
Taq polymerase [1] = format: biochemical
Method: (§1) Generally, PCR was carried out using 175-200 μM dNTPS (deoxyribonucleoside 5'-triphosphates) and 0.5 to 1.0 μM primers. Five units/100 μl of Taq polymerase were used. PCR reactions were overlaid with 30-100 μl light mineral oil. A typical PCR cycle for HIV amplification using a Perkin-Elmer Cetus DNA Thermal Cycler (Part No. N8010150) was: denaturation at 95° C. for 30 seconds; annealing at 55° C. for 30 seconds; and extension at 72° C. for 1 minute. PCR cycles were normally carried out in this manner for 35 cycles followed by 7 minutes at 72° C.
In some instances below, amplification of human histocompatibility (HLA) Class II genes was performed using primer pair GH26 (SEQ ID NO:2) and GH27 (SEQ ID NO:3) and human placental DNA to produce a 242-mer product (SEQ ID NO: 4). These primers and other primers are described in PCR Protocols: A Guide To Methods and Applications, Innis, M. A. et al. eds., pp. 261-271 (1990)).
Whole blood was prepared according to Mode III (see FIG. 1). Whole blood samples (100 μl) were lysed with protease K (0.5 mg/ml, 55° C. for 1 hour). The enzyme was inactivated by heating (95°-100°C., 10 minutes). Four sets of reactions were then set up involving the addition of interfering reagent to the protease lysate: 1) transferrin with 10 mM sodium bicarbonate; 2) transferrin with 20 mM sodium bicarbonate; 3) serum albumin with 10 mM sodium bicarbonate; and 4) serum albumin with no cofactor. These reaction were performed at room temperature for thirty minutes using a concentration range for transferrin and serum albumin (10, 25, 50, 75, 100, 150, 200 and 250 μg per 20 μl PCR rxn). PCR was then set up using the primer pair GH26/GH27 to produce a 242-mer product (see above). Two standard control reactions were run in separate tubes: i) a no nucleic acid target control; and 2) a positive control (human placental DNA). Four additional control lanes were run: 1) no inhibitor treatment (two lanes); 2) 10 mM sodium bicarbonate only (one lane); and 3) 50 μg transferrin only (one lane); and 4) transferrin with 10 mM sodium bicarbonate (two lanes). PCR was carried out for 35 cycles. The PCR products were thereafter electrophoresed (agarose) and visualized with ethidium bromide staining. The two above-named control reactions were electrophoresed in lanes 9 and 10 of FIG. 16A, respectively, as well as lanes 17 and 18 of FIG. 16B, respectively. In FIG. 16C, the positive control is in lane 1 and the negative control is in lane 2.
Whole blood was prepared according to Mode III (see FIG. 1). Whole blood samples (20 μl) were lysed with protease K (0.5 mg/ml, 55° C. for 1 hour). The enzyme was inactivated by heating (95°-100° C., 10 minutes). Reactions were then set up involving the addition of bovine transferrin or serum albumin with various cofactors, including bicarbonate ion, azide ion, thiocyanate ion, cyanate ion, oxalate ion, malonate ion, glycinate ion, and thioglycolate ion. These reaction were performed at room temperature for thirty minutes. PCR was then set up using the using primer pair GH26/GH27 to produce a 242-mer product (see above). PCR was carried out for 35 cycles. The PCR products were thereafter electrophoresed (agarose) and visualized with ethidium bromide staining.

[2] = Transferrin binding of heme
Text: This is lower than that expected from the molar ratio for transferrin to iron binding of 0.5. Second, there is the question of the central metal ion: the central metal iron was found not to be required for the transferrin-mediated phenomenon of the present invention.

Taq polymerase [3] = assay: PCR inhibition, SK38/39 system, 115-mer product on ethidium bromide gel or autoradiograph; format: biochemical
Method: as §1
In other cases, amplification of HIV sequences was performed using primer pair SK-38 (SEQ ID NO:5) and SK-39 (SEQ ID NO:6) and 115-mer (SEQ ID NO:7) as target to produce a 115-mer product.
Where agarose gel electrophoresis was used, the PCR products were fractionated by electrophoresis through a 3% Nusieve/1% agarose gel in TBE buffer. Electrophoresis was typically carried out in a constant voltage of 8-10 V/cm. Following agarose gel electrophoresis, individual bands were, in most cases, visualized by ethidium bromide staining. This involved staining the agarose gel with 1 μg/ml ethidium bromide in TBE for 30 minutes followed by destaining the agarose gel with TBE for 30 minutes.
The chemical reaction was performed as follows. Two aliquots (30 mg/aliquot) of sodium borohydride (NaBH4) were added at ten minute intervals to 1 ml of 200 μM hematin (Sigma) in 1M Tris (pH 8.0) under argon in the dark. The pH was adjusted to 6.0 between additions. At the end of the reaction (20 minutes) the pH was adjusted to 1.0 and then neutralized to pH 7.0. Six aliquots (5 μl) of the product of the reaction corresponding to different amounts of reacted hematin (37.5 μM, 7.5 μM, 1.5 μM, 0.3 μM, 0.06 μM, 0.012 μM) were added to standard (20 μl) PCR reactions in different tubes using the SK38/39 system (see above). Three standard control reactions were run in separate tubes: i) a no nucleic acid target control; ii) a no primer control; and iii) a positive control (no hematin). In addition, unreacted hematin was added to four different tubes in different amounts (50 μM, 5 μM, 0.5 μM, and 0.05 μM). PCR was carried out for 30 cycles. The PCR products were thereafter electrophoresed (agarose) and visualized with ethidium bromide staining (FIG. 2A, lanes 1-13). The three above-named control reactions were electrophoresed in lanes 1, 2 and 3, respectively. […] The unreacted hematin tubes (lanes 4-7) show no product until hematin is present at a very low concentration (0.05 μM, lane 7), at which point product is evident. […] Indeed, product is evident where 1.5 μM reacted hematin or less was present. […] A score (i.e., % maximum intensity of a positive control) was given to each band. An OD unit of 1.0 corresponds to 100% of maximum intensity. After examination of a plot of the estimated OD units to the concentration of hematin (expressed in the log scale) in these PCR reactions, it is clear that approximately a thirty-fold concentration difference was achieved (reacted to unreacted).
The photochemical reaction was performed as follows. Stock biliverdin (Sigma, 5 mM) was diluted in solution (50 mM Tris pH 7.8) to a final concentration of 200 μM. Two aliquots (300 μl) were then made. One aliquot was left unreacted. The other aliquot was exposed to ultraviolet radiation from an HRI-100 for 16 hours using the industry standard, F8T5BL hot cathode dual bipin lamps. Thereafter, both the unirradiated and irradiated materials were added (5 μl) to standard (20 μl) PCR reactions in different tubes using the SK38/39 system (see above) and 10^9 copies of 115-mer target. Three standard control reactions were run in separate tubes: i) a no nucleic acid target control; ii) a positive control (no biliverdin); and iii) a no Taq control. PCR was carried out for thirty (30) cycles. The PCR products were thereafter electrophoresed (agarose) and visualized with ethidium bromide staining (FIG. 3A, lanes 1-5). […]

Taq polymerase [4] = assay: HIV PCR after inhibitor treatment of whole blood lysate; format: biochemical; conditions: Mode III, transferrin with sodium bicarbonate
Method: The enzyme was inactivated by heating (95°-100° C., 10 minutes).

Taq polymerase [5] = assay: PCR from boiled whole blood with or without transferrin; format: biochemical; conditions: with transferrin; without transferrin inhibited above 1 μl
Method: Experiment 1. Whole blood (200 μl) was boiled for 10 minutes then briefly centrifuged to precipitate the solid coagulated mass which formed. The supernatant layer was then used directly for PCR amplification (1, 2, 3, 4, or 5 μl), either with or without transferrin. […] An aliquot of 5 μl whole blood processed by Mode III gave a very intense signal, indicating the advantage of the method over the boiling method, which provided no signal at all with a 5 μl aliquot.

[6] = in the presence of an anion (such as HCO3^-); cited from earlier work
DNA ligase = conditions: cited from earlier work
T4 DNA ligase = conditions: dilution, dialysis, or sucrose gradient centrifugation of cell-free extracts; cited from earlier work
[7] = tested on: DNA ligase from mouse erythroleukemia (MEL) cells; conditions: dilution, dialysis, or sucrose gradient centrifugation of cell-free extracts; cited from earlier work
Taq polymerase [8] = conditions: cited from earlier work
[9] = tested on: DNA-cytoplasmic DNA polymerase complex; conditions: cited from earlier work
[10] = tested on: reverse transcriptase purified from arian myeloblastosis virus; conditions: cited from earlier work
[11] = tested on: NAD-dependent DNA ligase from E. coli; conditions: cited from earlier work
[12] = tested on: virion-associated reverse transcriptase (RTase) of murine leukemia virus (MuLV); conditions: cited from earlier work

With “transferrin: blood serum component, an iron transport protein” the PCR product (Taq polymerase [1]; 10 μg per 20 μl PCR rxn, with cofactor) was “No product is visible”, the PCR product (Taq polymerase [1]; 25 μg per 20 μl PCR rxn, with cofactor) was “faint product band” and the PCR product (Taq polymerase [1]; 50 μg transferrin alone) was “No product is visible”. For the same substance, the PCR product (Taq polymerase [1]; 50 μg transferrin with 10 mM cofactor) was “Strong product bands”, the PCR product (Taq polymerase [1]; higher concentration of the cofactor (20 mM sodium bicarbonate), lanes 11-18) was “not as apparent” and the PCR product (Taq polymerase [1]; higher concentrations (50 to 250 μg, lanes 3-8), with cofactor) was “Strong product bands”. The “molar ratio of transferrin to heme at which transferrin is most effective in binding heme” value [2] was < 0.27, the “PCR product in presence of protoporphyrin” value (Taq polymerase [3]) was “product is visible” and the amplification specificity (Taq polymerase [4]) was “improves the specificity of the reaction”. The “aliquot of boiled whole blood supernatant up to which signal was provided” value (Taq polymerase [5]) was ≤ 3 µL and the “capacity to take up iron atoms” value [6] was 2 iron atoms per molecule.

In the case of hemin, the “concentration that does not affect DNA ligase activity or DNA substrate integrity” value (DNA ligase) is listed as ≤ 4 µM, the IC50 (DNA ligase; pre-incubation, depending on the source of the DNA ligase, read-out: half-maximal inhibition of DNA ligase) is listed as 25 to 100 µM and the “reversibility of inhibition of T4 DNA ligase” value (T4 DNA ligase) is listed as “not reversible”. The “reversibility of inhibition of DNA ligase” value [7] was “not reversible”, the “inhibition of PCR / Taq polymerase” value (Taq polymerase [8]) was “inhibit” and the “complete inhibition of the formation of DNA-enzyme complex” value [9] was ≥ 12 µM. For the same substance, the “mode of inhibition of DNA synthesis” value [9] was “competitive with respect to template and noncompetitive with respect to substrate”, the “inhibition of reverse transcriptase from myeloblastosis virus” value [10] was “does not inhibit” and the “concentration up to which E. coli DNA ligase was not inhibited” value [11] was “up to 150 μM”. The “reversibility of inhibition of MuLV RTase” value [12] was “reversible inhibitor”.
